Data: patent publication US11752125B2, “Anti-neuroinflammatory and protective compounds in Achillea fragrantissima” (THE STATE OF ISRAEL MINISTRY OF AGRICULTURE & RURAL …, priority 2013, dated 2023)

Assays:
ERK 1/2 = assay: H2O2-induced ERK 1/2 phosphorylation in astrocytes (ELISA); type: cell-based, rat; conditions: H2O2 175 μM 40 min; for effect on H2O2-induced phosphorylation of ERK1/2: astrocytes preincubated 2 h
Procedure: Astrocytes were treated with TTF 2 h before the addition of H2O2. Cells were lysed 40 minutes after the addition of H2O2 in lysis buffer supplied by PathScan sandwich ELISA kit (Cell Signaling TECHNOLOGY) according to the manufacturer's protocol. Protein concentrations in cell lysates were determined by Bradford reagent (Bio-Rad, Hercules, Calif.), and equal amounts of proteins were subjected to ELISA. To measure the amount of total and phosphoSAPK/JNK in cell lysates of astrocytes, ELISA was performed according to the manufacturer's protocol using the PathScan total SAPK/JNK sandwich ELISA kit (Cell Signaling TECHNOLOGY) and the PathScan phospho-SAPK/JNK (Thr183/Tyr185) sandwich ELISA kit (Cell Signaling TECHNOLOGY), respectively. To measure the amount of total and phospho-ERK 1/2 (i.e. phospho-p44/42 MAPK) in cell lysates of astrocytes, ELISA was performed according to the manufacturer's protocol using the PathScan total p44/42 MAPK (ERK 1/2) sandwich ELISA kit (Cell Signaling TECHNOLOGY) and the PathScan phospho-p44/42 MAPK (Thr202/Tyr204) sandwich ELISA kit (Cell Signaling TECHNOLOGY), respectively. To measure the amount of total and phospho-MEK1 in cell lysates of astrocytes, ELISA was performed according to the manufacturer's protocol using the PathScan total MEK1 sandwich ELISA kit (Cell Signaling TECHNOLOGY) and the PathScan phospho-MEK1 (Ser217/221) sandwich ELISA kit (Cell Signaling TECHNOLOGY), respectively. […] The optical density was determined at 450 nm using a microplate reader.
1. […] Determine the optical density at 450 nm using a microplate reader.
Astrocytes were treated with 175 μM of H2O2 for 40 min following preincubation with TTF for 2 h. The levels of phosphorylated and total SAPK/JNK (FIG. 3A), MEK1 (FIG. 3B) and ERK 1/2 (FIG. 3C) were measured by ELISA. […]

MEK1 = assay: Aβ25-35-induced MEK1 phosphorylation in N2a cells (ELISA); type: cell-based; conditions: concomitant treatment 30-40 min
Procedure: (§1) 7. Measure the amount of total and phosphorylated MEK1 in cell lysates of N2a cells, by ELISA using the PathScan total MEK1 sandwich ELISA kit (Cell Signaling TECHNOLOGY) or the PathScan phosoho-MEK1 (Ser217/221) sandwich ELISA kit (Cell Signaling TECHNOLOGY), respectively. 8. Determine the optical density at 450 nm using a microplate reader.
N2a cells were treated concomitantly with Aβ25-35 and TTF for 30 min. Cells were extracted and the levels of phosphorylated or total MEK1 were determined by specific ELISA kits. The results are the mean±SEM of two different experiments for phosphoMEK1 (n=4) (see FIG. 12A) and of one experiment for total MEK1 (n=2) (see FIG. 12B).
N2a cells were treated concomitantly with Aβ25-35 and AcA for 40 min. Cells were extracted and the levels of phosphorylated or total MEK1 were determined by specific ELISA kits. The results are the mean±SEM of one experiment (n=2).
N2a cells were treated concomitantly with A25-35 and memantine for 30 min. Cells were extracted and the levels of phosphorylated or total MEK1 were determined by specific ELISA kits. The results are the mean±SEM of one experiment (n=2).

ERK1/2 = assay: Aβ25-35-induced ERK1/2 phosphorylation in N2a cells (ELISA); type: cell-based; conditions: concomitant treatment 30-40 min
Procedure: as §1, with “phosphorylated ERK 1/2” for “phosphorylated MEK1”, “total p44/42 MAPK (ERK 1/2)” for “total MEK1”, “PathScan phosoho-p44/42 MAPK (Thr202/Tyr204)” for “PathScan phosoho-MEK1 (Ser217/221)”
N2a cells were treated concomitantly with Aβ25-35 and TTF for 30 min. Cells were extracted and the levels of phosphorylated or total ERK1/2 were determined by specific ELISA kits. The results are shown in FIG. 14 and are the mean±SEM of two different experiments (n=4).
N2a cells were treated concomitantly with Aβ25-35 and achillolide A for 40 min. Cells were extracted and the levels of phosphorylated or total ERK 1/2 were determined by specific ELISA kits. The results are the mean±SEM of two different experiments (n=4).
N2a cells were treated concomitantly with Aβ25-35 and memantine for 30 min. Cells were extracted and the levels of phosphorylated ERK1/2 were determined by a specific ELISA kit. The results are the mean±SEM of one experiment (n=2).

SMILES | effect on H2O2-induced phosphorylation of ERK1/2 (ERK 1/2) | effect on Aβ25-35-induced phosphorylation of MEK1 (MEK1) | effect on Aβ25-35-induced phosphorylation of ERK1/2 (ERK1/2) | inhibition of H2O2-induced phosphorylation of ERK 1/2 (ERK 1/2; astrocytes pretreated 2 h, total ERK 1/2 not affected)
C=C1CCC2=C(CO)C(=O)O[C@H]2/C=C(\C)[C@H](OC(C)=O)CC1=O [achillolide A] | inhibitory effect | does not affect | significantly decreased | 
CC12CC3CC(C)(C1)CC(N)(C3)C2 [memantine, reference compound] | inhibitory effect | down-regulates | does not affect | 
COc1cc(-c2oc3cc(OC)c(OC)c(O)c3c(=O)c2O)ccc1O [TTF, 3,5,4′-trihydroxy-6,7,3′-trimethoxyflavone] |  | significantly inhibited | significantly inhibited | 30%
